{
  "source": "patent US7524503B2",
  "about": "“Human cytomegalovirus (HCMV) cytotoxic T cell epitopes, polyepitopes compositions comprising same and diagnostic and prophylactic and therapeutic uses therefor” (priority 2001, dated 2009)",
  "key": {"[1]": {"tested_on": "PBMC from healthy HCMV seropositive donors", "test": "IFN-γ ELISPOT assay", "format": "cell-based, human", "conditions": "peptide 10 μg/ml", "summary_of_the_method": "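PBMC from healthy HCMV-seropositive donors (2.5×10^5 cells/well) were stimulated 18 h at 37° C with individual synthetic HCMV peptides (10 μg/ml) on anti-IFN-γ-coated nitrocellulose. IFN-γ spots were developed with biotinylated antibody and streptavidin-alkaline phosphatase and counted automatically. Counts were averaged over 3 wells, and no-peptide wells were subtracted.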"}, "[2]": {"tested_on": "peptide-sensitized autologous PHA blasts or LCLs", "format": "cell-based, human", "set-up": "key to CTL response: Y: Yes; ND: Not detected"}, "CD4+ T cells": {"tested_on": "CD4+ T cells", "test": "CD4+/CD8+ analysis of 20-mer peptides (intracellular IFN-γ staining or depletion ELISPOT)", "format": "cell-based, human", "description": "(§1) To determine whether a particular 20-mer peptide contained either a CD4^+- or CD8^+-restricted epitope, or both, CD4^+/CD8^+ cell depletion ELISPOT assays were performed on PBMC from healthy virus carriers. For any one experiment, three populations of cells were used: a) CD8^+-depleted PBMC, b) CD4^+-depleted PBMC, and c) non-depleted PBMC. These populations of cells were tested concurrently with the same peptides in a conventional ELISPOT assay as described herein above. DYNABEADS M-450 (Dynal, Oslo, Norway) that bound specifically to CD4^+- or CD8^+ cells were used to perform the depletion essentially according to manufacturers instructions. Beads were washed twice in cold PBS supplemented with 2% FCS using magnetic isolation. The requisite number of cells was resuspended in cold PBS supplemented with 2% FCS, added to the beads and then incubated at 4° C., in the dark, for 30 mins (CD8^+ beads) or 60 mins (CD4^+ beads). Populations were depleted of CD4^+ or CD8^+ cells using magnetic separation. After depletion, the non-attached cells were removed and washed once in growth medium, counted and used in conventional ELISPOT assay. Depleted cells were used at 1.7×10^5 cells per well and the non-depleted population was used at the standard 2.5×10^5 cells per well. After the depletion step, each respective cell population was assessed for the purity of CD4^+ and CD8^+ T cells by three-colour flow cytometry. Samples of depleted cell populations were stained with anti-CD3 antibody directly conjugated to fluorescein isothiocyanate (FITC), anti-CD4 antibody conjugated with phycoerythrin (PE) fluorochrome, and anti-CD8 antibody conjugated with Tricolor fluorochrome (described below). The percent of CD3^+/CD4^+ cells present within the CD8^+-depleted population and the percent of CD3^+/CD8^+ cells present within the CD4^+-depleted populations were assessed on FACSCalibur cytometer (Becton Dickinson). The purity of each population was greater than 90% and the results from the ELISPOT assays are expressed as the percentage of CD4+ or CD8^+ cells within the depleted populations that responded toward each peptide by producing IFN-γ.\n(§2) PBMCs were incubated at 37° C. in RPMI+10% FCS with and without 10 μg/ml peptides for 6 hours. Golgiplug™ (Pharmingen, San Diego, Calif., USA) was added to the samples according to manufacturer's instructions during the second hour of incubation and cells activated with 25 ng/ml phorbol 12-myristidate 13-acetate (PMA; Sigma-Aldrich Co, St. Louis Mo.) and 1 μg/ml iomomycin (Sigma) acted as a positive control. Following the incubation, 1×10^6 cells/sample were washed and resuspended in staining buffer consisting of PBS with GolgiPlug™, 3% FCS and sodium azide. Cells were then stained with FITC conjugated anti-CD3-FITC (UCHT1, Immunotech, Marseille, France), and either Tricolor (TRI) conjugated anti-CD4 (S3.5, Caltag, Burlingame, Calif.) or anti-CD8 (3B5, Caltag) for 30 minutes, 4° C. in the dark. The cells were fixed for 20 min at 4° C. with Cytofix/Cytoperm™ (BD Biosciences) and resuspended in Perm/Wash™ permeabilization buffer (BD Biosciences) according to manufacturers protocol. Fixed cells were stained with phycoerythrin (PE) conjugated anti-human IFN-γ (B27, Pharmingen) for 30 min at 4° C. in the dark. As a negative control, cells were stained with appropriate isotype matched control antibodies. Cells were washed twice in permeabilization buffer and resuspended in staining buffer before analysis by three-colour flow cytometry on a FACSCalibur cytometer (BD Biosciences). All data analysis was carried out using FlowJo software (Tree Star, Inc. San Carlos, CA).\n(§3) When using 20-mer peptides to map epitopes by ELISPOT, it is possible that some responses may be MHC class-II restricted, and not necessarily restricted through HLA class I alleles. It was evident throughout this study that some epitopes identified using ELISPOT could not be confirmed using cytotoxicity analysis. […]"}, "CD8+ T cells": {"tested_on": "CD8+ T cells", "test": "CD4+/CD8+ analysis of 20-mer peptides (intracellular IFN-γ staining or depletion ELISPOT)", "format": "cell-based, human", "description": "as §1, §2, §3"}, "HLA A2": {"molecular_target": "T1, HLA A2 (Homo sapiens, UniProt P04439, D140Y/D185E/D98H/E176V/E277Q/G131W/G231S/I119V/I121R/I166T/I218V/L300P/L318F/N151K/N90K/P208A/P217A/Q86G/Q94H/R138H/R169H/T345S)", "T1 construct": "endogenous in cells; host or cells: T2 cells", "format": "cell-based", "conditions": "HLA A2 on T2 cells; relative increase in HLA expression vs no peptide at 26° C."}, "[3]": {"conditions": "overlapping 20mer peptides, Table 4"}},
  "note": "Read-outs that look alike come from different tables or passages of the source.",
  "data": [
    {"sequence": "QQNQWKEPDVYYTSAFVFPT", "values": [
      {"measurement": "ELISPOT Responses (SFC/10^6 PBMC)", "setting": "[1]; donor eight", "result": "JW(600) SFC/10^6 PBMC"},
      {"measurement": "CTL response", "setting": "[2]; [3]", "result": "Y"},
      {"measurement": "Responding cells (% CD4)", "setting": "CD4+ T cells; donor eight", "result": 0, "unit": "%"},
      {"measurement": "Responding cells (% CD8)", "setting": "CD8+ T cells; donor eight", "result": 0.03, "unit": "%"}
    ]},
    {"sequence": "QYDPVAALFFFDIDLLLQRG", "values": [
      {"measurement": "ELISPOT Responses (SFC/10^6 PBMC)", "setting": "[1]; donor seven", "result": "SB(97) SFC/10^6 PBMC"},
      {"measurement": "CTL response", "setting": "[2]; [3]", "result": "Y"},
      {"measurement": "Responding cells (% CD4)", "setting": "CD4+ T cells; donor seven", "result": 0.22, "unit": "%"},
      {"measurement": "Responding cells (% CD8)", "setting": "CD8+ T cells; donor seven", "result": 0.03, "unit": "%"}
    ]},
    {"sequence": "RQTEKHELLVLVKKAQLNRH", "values": [
      {"measurement": "ELISPOT Responses (SFC/10^6 PBMC)", "setting": "[1]; donor fourteen", "result": "RK(313) SFC/10^6 PBMC"},
      {"measurement": "CTL response", "setting": "[2]; [3]", "result": "Y"},
      {"measurement": "Responding cells (% CD4)", "setting": "CD4+ T cells; donor fourteen", "result": 1.52, "unit": "%"},
      {"measurement": "Responding cells (% CD8)", "setting": "CD8+ T cells; donor fourteen", "result": 0.57, "unit": "%"}
    ]},
    {"sequence": "RSYAYIYTTYLLGSNTEYVA (human cytomegalovirus gB CTL epitope peptide)", "values": [
      {"measurement": "ELISPOT Responses (SFC/10^6 PBMC)", "setting": "[1]; donor fourteen", "result": "RK(170) SFC/10^6 PBMC"},
      {"measurement": "CTL response", "setting": "[2]; [3]", "result": "Y"},
      {"measurement": "Responding cells (% CD4)", "setting": "CD4+ T cells; donor fourteen", "result": 0.39, "unit": "%"},
      {"measurement": "Responding cells (% CD8)", "setting": "CD8+ T cells; donor fourteen", "result": 0.58, "unit": "%"}
    ]},
    {"sequence": "SICPSQEPMSIYVYALPLKM", "values": [
      {"measurement": "ELISPOT Responses (SFC/10^6 PBMC)", "setting": "[1]; donor eight", "result": 3178, "unit": "SFC/10^6 PBMC"},
      {"measurement": "CTL response", "setting": "[2]; [3]", "result": "Y"},
      {"measurement": "Responding cells (% CD4)", "setting": "CD4+ T cells; donor eight", "result": 1.18, "unit": "%"},
      {"measurement": "Responding cells (% CD8)", "setting": "CD8+ T cells; donor eight", "result": 1.36, "unit": "%"}
    ]},
    {"sequence": "SMMWMRFFV (human cytomegalovirus US2 CTL epitope peptide)", "values": [
      {"measurement": "MSE (MHC stabilization efficiency)", "setting": "HLA A2", "result": "++ (++ = 100-199%)"},
      {"measurement": "ELISPOT Responses (SFC/10^6 PBMC)", "setting": "[1]; donor delta", "result": "SE(393) SFC/10^6 PBMC"},
      {"measurement": "CTL response", "setting": "[2]; predicted epitopes, Table 3", "result": "Y"}
    ]},
    {"sequence": "SQYRIQGKLEYRHTWDRHDE", "values": [
      {"measurement": "ELISPOT Responses (SFC/10^6 PBMC)", "setting": "[1]; donor delta", "result": "SE(1203) SFC/10^6 PBMC"},
      {"measurement": "CTL response", "setting": "[2]; [3]", "result": "Y"},
      {"measurement": "Responding cells (% CD4)", "setting": "CD4+ T cells; donor delta", "result": 0, "unit": "%"},
      {"measurement": "Responding cells (% CD8)", "setting": "CD8+ T cells; donor delta", "result": 2.0, "unit": "%"}
    ]},
    {"sequence": "TAAKAYAVGQFEQPTETPPE (human cytomegalovirus IE2 CTL epitope peptide)", "values": [
      {"measurement": "ELISPOT Responses (SFC/10^6 PBMC)", "setting": "[1]; donor fourteen", "result": 859, "unit": "SFC/10^6 PBMC"},
      {"measurement": "ELISPOT Responses (SFC/10^6 PBMC)", "setting": "[1]; donor seven", "result": 326, "unit": "SFC/10^6 PBMC"},
      {"measurement": "CTL response", "setting": "[2]; [3]", "result": "Y"},
      {"measurement": "Responding cells (% CD4)", "setting": "CD4+ T cells; donor fourteen", "result": 0.2, "unit": "%"},
      {"measurement": "Responding cells (% CD8)", "setting": "CD8+ T cells; donor fourteen", "result": 0.35, "unit": "%"}
    ]},
    {"sequence": "TYEKYGNVSVFETSGGLVVF (human cytomegalovirus gB CTL epitope peptide)", "values": [
      {"measurement": "ELISPOT Responses (SFC/10^6 PBMC)", "setting": "[1]; donor delta", "result": "SE(75) SFC/10^6 PBMC"},
      {"measurement": "CTL response", "setting": "[2]; [3]", "result": "Y"},
      {"measurement": "Responding cells (% CD4)", "setting": "CD4+ T cells; donor delta", "result": 0, "unit": "%"},
      {"measurement": "Responding cells (% CD8)", "setting": "CD8+ T cells; donor delta", "result": 0.097, "unit": "%"}
    ]},
    {"sequence": "VFTWPPWQAGILARNLVPMV", "values": [
      {"measurement": "ELISPOT Responses (SFC/10^6 PBMC)", "setting": "[1]; donor delta", "result": 533, "unit": "SFC/10^6 PBMC"},
      {"measurement": "ELISPOT Responses (SFC/10^6 PBMC)", "setting": "[1]; donor four", "result": 420, "unit": "SFC/10^6 PBMC"},
      {"measurement": "CTL response", "setting": "[2]; [3]", "result": "Y"},
      {"measurement": "Responding cells (% CD4)", "setting": "CD4+ T cells; donor delta", "result": 0, "unit": "%"},
      {"measurement": "Responding cells (% CD8)", "setting": "CD8+ T cells; donor delta", "result": 0.45, "unit": "%"}
    ]},
    {"sequence": "VLAELVKQI (human cytomegalovirus IE1 CTL epitope peptide)", "values": [
      {"measurement": "MSE (MHC stabilization efficiency)", "setting": "HLA A2", "result": "++ (++ = 100-199%)"},
      {"measurement": "ELISPOT Responses (SFC/10^6 PBMC)", "setting": "[1]; donor seven", "result": "SB(276) SFC/10^6 PBMC"},
      {"measurement": "CTL response", "setting": "[2]; predicted epitopes, Table 3", "result": "Y"}
    ]},
    {"sequence": "VLEETSVML (human cytomegalovirus IE1 CTL epitope peptide)", "values": [
      {"measurement": "ELISPOT Responses (SFC/10^6 PBMC)", "setting": "[1]; donor fifteen", "result": 245, "unit": "SFC/10^6 PBMC"},
      {"measurement": "ELISPOT Responses (SFC/10^6 PBMC)", "setting": "[1]; donor seven", "result": 3752, "unit": "SFC/10^6 PBMC"},
      {"measurement": "CTL activity of polyclonal CTL line", "setting": "[2]; donor seven, effector:target ratio 10:1", "result": "strong CTL activity"},
      {"measurement": "CTL response", "setting": "[2]; predicted epitopes, Table 3", "result": "Y"}
    ]}
  ]
}
